# Molecular target: T1, human ENT1 (Homo sapiens, UniProt Q99808)
# T1 construct: JAR cells expressing ENT1 were purchased from ATCC; host or cells: JAR cells
# T1 sequence (Q99808 1-456): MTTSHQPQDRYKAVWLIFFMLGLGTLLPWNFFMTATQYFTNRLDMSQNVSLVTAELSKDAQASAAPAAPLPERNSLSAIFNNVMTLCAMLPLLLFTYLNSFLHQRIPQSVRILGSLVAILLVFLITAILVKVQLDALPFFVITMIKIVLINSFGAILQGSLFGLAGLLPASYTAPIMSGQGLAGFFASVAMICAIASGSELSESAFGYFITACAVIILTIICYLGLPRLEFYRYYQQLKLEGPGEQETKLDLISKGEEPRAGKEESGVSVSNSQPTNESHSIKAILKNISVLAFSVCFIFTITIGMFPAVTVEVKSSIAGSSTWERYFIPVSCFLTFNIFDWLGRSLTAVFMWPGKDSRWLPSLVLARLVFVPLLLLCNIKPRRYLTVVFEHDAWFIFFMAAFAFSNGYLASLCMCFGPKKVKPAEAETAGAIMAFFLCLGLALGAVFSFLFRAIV
# Test: ENT1 binding assay (competition with Sahenta-DY647 on JAR cells)
# Details: competition with SAHENTA-DY647 binding; IC50 categorized; read-out: Binding Assay IC50
# Experimental: Compounds of the present disclosure were assayed to show ability to bind to human ENT1. The assay is a competition between a compound of interest and Sahenta-DY647, an ENT1 inhibitor that emits fluorescence (Ex=630 nm, Em=670 nm). By measuring the fluorescence at the end of the assay, one can assess the binding potency of the compounds tested. The compounds of the present disclosure were tested and compared to known ENT inhibitors, dilazep and NBMPR:
# JAR cells expressing ENT1 were purchased from ATCC® (HTB-144TM). Cells were cultured in RPMI 1640 medium (LONZA®, #BE12-702F/U1) supplemented with 10% FBS (GIBCO®, #10270-106), 10 mM Hepes (LONZA®, #BE17-737E), 1 mM Sodium Pyruvate (LONZA®, #BE13-115E), and 2% Penicillin/Streptomycin (LONZA®, #DE17-603E) at 37° C. and 5% CO2.
# The assay was conducted with the following buffer on the day of the assay: HBSS (LONZA®, #LO-527F) supplemented with 10 mM Hepes (LONZA®, #BE17-737E) and 0.1% BSA (Miltenyi®, #130-091-376).
# JAR cells were resuspended in the described buffer. The compounds of interest and Sahenta-DY647 were diluted 200× with the described buffer.
# A total of 50,000 cells were pre-incubated for 30 min at 4° C. with the compounds of the present disclosure before adding the corresponding amount of Sahenta-DY647 (100 nM) to the minimal concentration at Bmax and incubating for an additional 30 min at 4° C. The total volume of the reaction was 100 μL (50 μL of cells, 25 μL of the compounds of the present disclosure, and 25 μL of Sahenta-DY647) in a U-bottom 96 well plate (Greiner®, #650-180). The plates were washed 2× by centrifugation (4 min, 400 rcf at 4° C.) in the same buffer. Cells were re-suspended in 70 μL of the buffer and 50 μL was transferred to a Black 384 Optiplate (PerkinElmer®, #6007279). Fluorescence (Ex=630 nm, Em=670 nm) was acquired on a Spectramax i3x (Molecular Devices®).
# Dose-response data from the compounds were analyzed with Graphpad Prism 9.1.1@software, using nonlinear regression applied to a sigmoidal dose-response model and the following equation:
# Y=Bottom+(Top-Bottom)/(1+10^((LogIC50−X)*HillSlope)), with a shared bottom and top between the test reagent and dipyridamole.
# Data from multiple experiments were compiled by taking the average pIC50 value for the reagent in question±the standard deviation (s.d.) and expressing it as an average IC50 value in nM.
# The inhibitory effect of the test compound was expressed as a percentage of the inhibition of SAHENTA-DY647 binding.
row,SMILES,IC50
1,Cc1ccc2nc(CSc3ncnc4c3ncn4[C@@H]3O[C@H](C)[C@@H](O)[C@H]3O)cn2c1 [Compound 396],> 500 nM
2,C[C@H]1O[C@@H](n2cnc3c(SCc4ccc(S(=O)(=O)N(C)C)cc4)ncnc32)[C@H](O)[C@@H]1O [Compound 366],> 500 nM
3,C[C@H]1O[C@@H](n2c(Nc3cnn(C)c3)nc3c(N4CCc5ccc([N+](=O)[O-])cc5C4)ncnc32)[C@H](O)[C@@H]1O [Compound 142],< 1 nM
4,C[C@H]1O[C@@H](n2cnc3c(NCc4ccc(OCCN(C)C)cc4)ncnc32)[C@H](O)[C@@H]1O [Compound 388],> 500 nM
5,C[C@H]1O[C@@H](n2cnc3c(OCc4ccc(-c5cnco5)cc4)ncnc32)[C@H](O)[C@@H]1O [Compound 291],> 500 nM
6,C[C@H]1O[C@@H](n2cnc3c(NCc4ccc(S(C)(=O)=O)cc4)ncnc32)[C@H](O)[C@@H]1O [Compound 277],> 500 nM
7,C[C@H]1O[C@@H](n2cnc3c(OCCc4ccc(C#N)c(F)c4)ncnc32)[C@H](O)[C@@H]1O [Compound 232],> 500 nM
8,C[C@H]1O[C@@H](n2c(N[C@H]3CC[C@@](C)(O)CC3)nc3c(OCc4ccc(OC(F)F)cc4)ncnc32)[C@H](O)[C@@H]1O [Compound 122],1 to 20 nM
9,C[C@H]1O[C@@H](n2cnc3c(-n4cc(-c5ccc([N+](=O)[O-])cc5)nn4)ncnc32)[C@H](O)[C@@H]1O [Compound 416],> 500 nM
10,C[C@H]1O[C@@H](n2c(NC3CCCC3)nc3c(OCc4ccc(C(F)(F)F)nc4)ncnc32)[C@H](O)[C@@H]1O [Compound 93],20 to 500 nM
11,C[C@H]1O[C@@H](n2c(N[C@H]3CC[C@@](C)(O)CC3)nc3c(N4CCc5ccc([N+](=O)[O-])cc5C4)ncnc32)[C@H](O)[C@@H]1O [Compound 139],< 1 nM
12,C[C@H]1O[C@@H](n2cnc3c(SCc4cccc(OC5CC5)c4)ncnc32)[C@H](O)[C@@H]1O [Compound 306],> 500 nM
13,C[C@H]1O[C@@H](n2c(N[C@H]3C[C@H](O)C3)nc3c(OCc4ccc(C#N)cc4)ncnc32)[C@H](O)[C@@H]1O [Compound 50],< 1 nM
14,"CC1OC(n2c(NC3CC(C)(O)C3)nc3c(OCc4ccc([N+](=O)[O-])cc4)ncnc32)C(O)C1O (single isomer, unassigned) [Compound 133]",1 to 20 nM
15,C[C@H]1O[C@@H](n2cnc3c(OCc4ccc5c(c4)OCC5)ncnc32)[C@H](O)[C@@H]1O [Compound 313],> 500 nM
16,C[C@H]1O[C@@H](n2c(-c3cn[nH]c3)nc3c(OCc4ccc([N+](=O)[O-])cc4)ncnc32)[C@H](O)[C@@H]1O [Compound 208],20 to 500 nM
17,C[C@H]1O[C@@H](n2cnc3c(OCCc4ccc(OC(F)(F)F)cc4)ncnc32)[C@H](O)[C@@H]1O [Compound 241],> 500 nM
18,C[C@H]1O[C@@H](n2cnc3c(NCc4cccc(-c5ncco5)c4)ncnc32)[C@H](O)[C@@H]1O [Compound 380],> 500 nM
19,C[C@H]1O[C@@H](n2cnc3c(OCCc4ccc(CF)cc4)ncnc32)[C@H](O)[C@@H]1O [Compound 294],> 500 nM
20,C[C@H]1O[C@@H](n2cnc3c(OCCc4cc(F)c(Cl)c(F)c4)ncnc32)[C@H](O)[C@@H]1O [Compound 268],> 500 nM
21,COCCCNc1nc2c(N3CCc4ccc([N+](=O)[O-])cc4C3)ncnc2n1[C@@H]1O[C@H](C)[C@@H](O)[C@H]1O [Compound 146],1 to 20 nM
22,C[C@H]1O[C@@H](n2cnc3c(NCc4ccc(C(F)(F)F)c(Cl)c4)ncnc32)[C@H](O)[C@@H]1O [Compound 282],> 500 nM
23,C[C@H]1O[C@@H](n2c(NCCCO)nc3c(OCc4ccc(C#N)cc4)ncnc32)[C@H](O)[C@@H]1O [Compound 43],20 to 500 nM
24,C[C@H]1O[C@@H](n2cnc3c(OCc4ccccc4S(C)(=O)=O)ncnc32)[C@H](O)[C@@H]1O [Compound 375],> 500 nM

row,SMILES,IC50
1,C[C@H]1O[C@@H](n2c(NCCCS(C)(=O)=O)nc3c(OCc4ccc(OC(F)F)cc4)ncnc32)[C@H](O)[C@@H]1O [Compound 62],1 to 20 nM
2,C[C@H]1O[C@@H](n2cnc3c(NCc4cccc(-n5cccn5)c4)ncnc32)[C@H](O)[C@@H]1O [Compound 352],> 500 nM
3,CNc1nc2c(OCc3ccc([N+](=O)[O-])cc3)ncnc2n1[C@@H]1O[C@H](C)[C@@H](O)[C@H]1O [Compound 19],20 to 500 nM
4,CCNc1nc2c(OCc3ccc(OC(F)F)cc3)ncnc2n1[C@@H]1O[C@H](C)[C@@H](O)[C@H]1O [Compound 38],1 to 20 nM
5,OC[C@@H]1C[C@@H](O)[C@H](n2cnc3c(OCc4ccc(OC(F)F)cc4)ncnc32)O1 [Compound 303],> 500 nM
6,C[C@H]1O[C@@H](n2c(NCC3COC3)nc3c(OCc4ccc(C#N)cc4)ncnc32)[C@H](O)[C@@H]1O [Compound 107],20 to 500 nM
7,C[C@H]1O[C@@H](n2cnc3c(OCc4ccc(F)cc4)ncnc32)[C@H](O)[C@@H]1O [Compound 202],20 to 500 nM
8,C[C@H]1O[C@@H](n2cnc3c(OCc4ccccc4C(F)(F)F)ncnc32)[C@H](O)[C@@H]1O [Compound 323],> 500 nM
9,C[C@H]1O[C@@H](n2cnc3c(-c4cn(-c5ccc([N+](=O)[O-])cc5)nn4)ncnc32)[C@H](O)[C@@H]1O [Compound 368],> 500 nM
10,C[C@H]1O[C@@H](n2c(NC3CCCC3)nc3c(OCc4ccc(C(F)F)nc4)ncnc32)[C@H](O)[C@@H]1O [Compound 95],1 to 20 nM
11,C[C@H]1O[C@@H](n2c(NC3CCOCC3)nc3c(N4CCc5ccc([N+](=O)[O-])cc5C4)ncnc32)[C@H](O)[C@@H]1O [Compound 148],1 to 20 nM
12,Cc1nccn1-c1ccc(COc2ncnc3c2ncn3[C@@H]2O[C@H](C)[C@@H](O)[C@H]2O)cc1 [Compound 381],> 500 nM
13,Cc1ccc(CNc2ncnc3c2ncn3[C@@H]2O[C@H](C)[C@@H](O)[C@H]2O)cc1C [Compound 320],> 500 nM
14,COc1nc(OCc2ccc([N+](=O)[O-])cc2)c2ncn([C@@H]3O[C@H](C)[C@@H](O)[C@H]3O)c2n1 [Compound 283],> 500 nM
15,C[C@H]1O[C@@H](n2c(NCCN3CCN(C)CC3)nc3c(OCc4ccc([N+](=O)[O-])cc4)ncnc32)[C@H](O)[C@@H]1O [Compound 33],20 to 500 nM
16,C[C@H]1O[C@@H](n2c(N[C@H]3C[C@@H](O)C3)nc3c(OCc4ccc(C#N)cc4)ncnc32)[C@H](O)[C@@H]1O [Compound 51],1 to 20 nM
17,C[C@H]1O[C@@H](n2c(NCCO)nc3c(OCc4ccc(C#N)cc4)ncnc32)[C@H](O)[C@@H]1O [Compound 41],20 to 500 nM
18,O=[N+]([O-])c1ccc(COc2ncnc3c2nc(NC2CCCC2)n3[C@@H]2O[C@H](COCCO)[C@@H](O)[C@H]2O)cc1 [Compound 135],20 to 500 nM
19,C[C@H]1O[C@@H](n2cnc3c(OCc4ccc(F)c(F)c4F)ncnc32)[C@H](O)[C@@H]1O [Compound 238],> 500 nM
20,C[C@H]1O[C@@H](n2c(NC3CCCC3)nc3c(OCc4ccc(C(F)(F)F)cc4)ncnc32)[C@H](O)[C@@H]1O [Compound 92],1 to 20 nM
21,C[C@H]1O[C@@H](n2cnc3c(NCc4ccc(-c5ccccn5)cc4)ncnc32)[C@H](O)[C@@H]1O [Compound 384],> 500 nM
22,C[C@H]1O[C@@H](n2cnc3c(OCc4cccc(OC(F)F)c4)ncnc32)[C@H](O)[C@@H]1O [Compound 246],> 500 nM
23,C[C@H]1O[C@@H](n2cnc3c(OCc4ccc([N+](=O)[O-])cc4)nc(O)nc32)[C@H](O)[C@@H]1O [Compound 256],> 500 nM
